Key:
Assay in all cases: KINOMEscan
Type in all cases: binding
[1] = molecular target: CTK (Homo sapiens (Human), UniProt P42679); settings: 10000 nM, read-out: Percent Control
[2] = molecular target: BLK (Homo sapiens (Human), UniProt P51451); settings: 10000 nM, read-out: Percent Control
[3] = molecular target: p38-delta (Homo sapiens (Human), UniProt O15264); settings: 10000 nM, read-out: Percent Control
[4] = molecular target: TYRO3 (Homo sapiens (Human), UniProt Q06418); settings: TYRO3, 10000 nM; read-out: Percent Control
TYRO3, sequence (Q06418 41-890): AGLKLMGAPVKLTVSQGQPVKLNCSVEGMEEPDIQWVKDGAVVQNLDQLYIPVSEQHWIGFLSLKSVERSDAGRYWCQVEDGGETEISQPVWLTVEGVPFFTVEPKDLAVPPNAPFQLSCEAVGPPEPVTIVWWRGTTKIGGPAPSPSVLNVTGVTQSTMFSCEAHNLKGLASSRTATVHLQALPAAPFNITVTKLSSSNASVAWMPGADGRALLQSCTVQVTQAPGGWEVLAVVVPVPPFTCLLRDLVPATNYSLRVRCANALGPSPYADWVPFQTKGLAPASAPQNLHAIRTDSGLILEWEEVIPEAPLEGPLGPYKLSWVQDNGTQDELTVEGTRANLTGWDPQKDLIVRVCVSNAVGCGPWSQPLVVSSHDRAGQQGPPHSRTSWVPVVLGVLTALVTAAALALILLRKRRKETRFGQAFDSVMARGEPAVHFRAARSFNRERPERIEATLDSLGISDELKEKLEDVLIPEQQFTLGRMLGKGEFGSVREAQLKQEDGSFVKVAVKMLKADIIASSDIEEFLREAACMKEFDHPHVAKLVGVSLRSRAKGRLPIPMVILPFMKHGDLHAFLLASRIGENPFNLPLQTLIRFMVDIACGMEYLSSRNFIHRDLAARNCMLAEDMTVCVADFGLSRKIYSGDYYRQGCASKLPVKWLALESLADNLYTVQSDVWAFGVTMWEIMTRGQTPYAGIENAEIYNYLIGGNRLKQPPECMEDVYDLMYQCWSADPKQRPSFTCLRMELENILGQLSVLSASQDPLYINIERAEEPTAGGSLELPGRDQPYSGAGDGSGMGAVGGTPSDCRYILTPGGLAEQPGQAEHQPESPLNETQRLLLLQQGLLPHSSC

[5] = molecular target: JAK2(JH1domain-catalytic) (Homo sapiens (Human), UniProt O60674); settings: 10000 nM, read-out: Percent Control
[6] = molecular target: BRSK1 (Homo sapiens (Human), UniProt Q8TDC3); settings: BRSK1, 10000 nM; read-out: Percent Control
[7] = molecular target: DCAMKL2 (Homo sapiens (Human), UniProt Q8N568); settings: DCAMKL2, 10000 nM; read-out: Percent Control
[8] = molecular target: TEC (Homo sapiens (Human), UniProt P42680); settings: 10000 nM, read-out: Percent Control
[9] = molecular target: DLK (Homo sapiens (Human), UniProt Q12852); settings: 10000 nM, read-out: Percent Control
DLK, sequence (Q12852 whole entry): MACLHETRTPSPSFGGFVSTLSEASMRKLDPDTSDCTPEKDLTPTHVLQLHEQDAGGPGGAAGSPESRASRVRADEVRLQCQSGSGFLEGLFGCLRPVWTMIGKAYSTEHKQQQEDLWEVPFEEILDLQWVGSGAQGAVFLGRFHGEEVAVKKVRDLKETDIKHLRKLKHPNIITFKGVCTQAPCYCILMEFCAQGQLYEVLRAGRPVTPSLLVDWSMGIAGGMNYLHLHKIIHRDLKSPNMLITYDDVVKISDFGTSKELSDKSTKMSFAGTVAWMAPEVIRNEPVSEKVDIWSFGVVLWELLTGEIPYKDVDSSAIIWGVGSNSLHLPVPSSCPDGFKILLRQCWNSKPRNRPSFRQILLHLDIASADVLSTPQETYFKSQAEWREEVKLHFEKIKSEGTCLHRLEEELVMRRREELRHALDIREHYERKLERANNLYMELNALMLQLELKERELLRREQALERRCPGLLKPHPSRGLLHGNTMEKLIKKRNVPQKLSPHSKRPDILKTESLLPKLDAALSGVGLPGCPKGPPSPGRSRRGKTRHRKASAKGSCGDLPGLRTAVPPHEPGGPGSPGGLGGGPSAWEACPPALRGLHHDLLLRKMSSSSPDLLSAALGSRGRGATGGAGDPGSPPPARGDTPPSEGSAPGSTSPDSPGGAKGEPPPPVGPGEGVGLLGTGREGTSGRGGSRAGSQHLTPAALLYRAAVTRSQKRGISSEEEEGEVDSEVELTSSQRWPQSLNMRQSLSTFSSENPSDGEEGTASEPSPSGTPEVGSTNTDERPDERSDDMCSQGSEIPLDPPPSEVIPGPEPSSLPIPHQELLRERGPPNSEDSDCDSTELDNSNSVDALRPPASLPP

[10] = molecular target: ADCK4 (Homo sapiens (Human), UniProt Q96D53); settings: ADCK4, 10000 nM; read-out: Percent Control
[11] = molecular target: MAP3K15 (Homo sapiens (Human), UniProt Q6ZN16); settings: MAP3K15, 10000 nM; read-out: Percent Control
[12] = molecular target: PIK3CA(C420R) (Homo sapiens (Human), UniProt P42336, C420R); settings: 10000 nM, read-out: Percent Control
[13] = molecular target: MLK1 (Homo sapiens (Human), UniProt P80192); settings: MLK1, 10000 nM; read-out: Percent Control
MLK1, sequence (P80192 whole entry): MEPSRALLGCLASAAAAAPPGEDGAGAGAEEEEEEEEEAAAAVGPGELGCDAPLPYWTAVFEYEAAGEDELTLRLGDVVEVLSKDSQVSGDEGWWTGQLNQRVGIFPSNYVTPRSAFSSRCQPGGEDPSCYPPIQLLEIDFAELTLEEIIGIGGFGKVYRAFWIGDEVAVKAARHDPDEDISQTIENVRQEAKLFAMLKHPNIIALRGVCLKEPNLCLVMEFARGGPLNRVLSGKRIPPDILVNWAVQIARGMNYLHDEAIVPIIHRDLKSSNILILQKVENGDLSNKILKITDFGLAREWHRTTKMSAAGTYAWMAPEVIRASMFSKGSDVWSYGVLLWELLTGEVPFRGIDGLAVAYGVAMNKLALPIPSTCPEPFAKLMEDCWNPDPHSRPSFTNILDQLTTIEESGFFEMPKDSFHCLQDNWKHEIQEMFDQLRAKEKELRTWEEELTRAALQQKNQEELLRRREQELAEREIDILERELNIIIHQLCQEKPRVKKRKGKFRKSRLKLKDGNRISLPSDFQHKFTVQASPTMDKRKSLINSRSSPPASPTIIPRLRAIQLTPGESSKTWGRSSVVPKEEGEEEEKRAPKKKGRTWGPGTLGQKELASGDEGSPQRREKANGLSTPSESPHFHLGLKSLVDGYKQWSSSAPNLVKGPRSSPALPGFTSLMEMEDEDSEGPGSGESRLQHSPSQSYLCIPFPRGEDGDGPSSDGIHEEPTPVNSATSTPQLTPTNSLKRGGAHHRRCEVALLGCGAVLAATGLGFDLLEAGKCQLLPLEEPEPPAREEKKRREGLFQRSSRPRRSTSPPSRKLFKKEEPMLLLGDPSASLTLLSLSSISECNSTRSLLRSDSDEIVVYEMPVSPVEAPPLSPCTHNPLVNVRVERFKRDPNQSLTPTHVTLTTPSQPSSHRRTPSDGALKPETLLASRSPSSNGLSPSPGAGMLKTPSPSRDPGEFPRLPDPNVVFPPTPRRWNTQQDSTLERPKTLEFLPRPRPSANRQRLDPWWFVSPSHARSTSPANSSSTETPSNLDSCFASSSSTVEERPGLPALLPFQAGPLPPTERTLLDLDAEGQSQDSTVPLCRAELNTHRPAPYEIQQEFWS

[14] = molecular target: MRCKA (Homo sapiens (Human), UniProt Q5VT25); settings: 10000 nM, read-out: Percent Control
[15] = molecular target: CDK4-cyclinD3 (Homo sapiens (Human), UniProt P11802); settings: CDK4-cyclinD3, 10000 nM; read-out: Percent Control
[16] = molecular target: EPHA1 (Homo sapiens (Human), UniProt P21709); settings: EPHA1, 10000 nM; read-out: Percent Control
EPHA1, sequence (P21709 26-976): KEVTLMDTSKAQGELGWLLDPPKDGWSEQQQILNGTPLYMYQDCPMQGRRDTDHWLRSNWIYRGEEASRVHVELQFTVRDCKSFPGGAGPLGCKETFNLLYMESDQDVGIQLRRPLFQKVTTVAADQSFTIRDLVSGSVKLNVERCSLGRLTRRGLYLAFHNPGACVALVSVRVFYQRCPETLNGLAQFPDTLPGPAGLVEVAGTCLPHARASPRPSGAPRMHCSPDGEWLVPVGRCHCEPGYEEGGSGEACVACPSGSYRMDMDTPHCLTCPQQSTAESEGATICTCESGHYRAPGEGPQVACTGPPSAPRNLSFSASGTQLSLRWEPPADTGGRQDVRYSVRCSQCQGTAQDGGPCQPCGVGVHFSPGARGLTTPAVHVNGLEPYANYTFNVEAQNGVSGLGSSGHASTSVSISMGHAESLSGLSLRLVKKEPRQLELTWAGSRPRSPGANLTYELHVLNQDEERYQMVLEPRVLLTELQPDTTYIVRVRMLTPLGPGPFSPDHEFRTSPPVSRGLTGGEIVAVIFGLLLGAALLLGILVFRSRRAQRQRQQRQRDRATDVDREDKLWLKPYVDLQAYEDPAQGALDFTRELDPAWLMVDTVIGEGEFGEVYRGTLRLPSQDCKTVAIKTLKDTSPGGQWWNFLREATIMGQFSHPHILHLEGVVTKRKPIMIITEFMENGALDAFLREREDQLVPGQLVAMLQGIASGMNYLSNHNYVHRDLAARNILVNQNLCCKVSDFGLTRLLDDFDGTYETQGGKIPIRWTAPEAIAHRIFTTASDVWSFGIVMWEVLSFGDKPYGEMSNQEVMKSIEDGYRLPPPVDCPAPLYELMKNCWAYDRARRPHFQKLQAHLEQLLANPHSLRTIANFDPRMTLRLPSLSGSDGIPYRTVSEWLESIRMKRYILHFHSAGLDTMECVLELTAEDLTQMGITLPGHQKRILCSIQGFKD

[17] = molecular target: LIMK2 (Homo sapiens (Human), UniProt P53671); settings: LIMK2, 10000 nM; read-out: Percent Control
[18] = molecular target: ERK4 (Homo sapiens (Human), UniProt P31152); settings: ERK4, 10000 nM; read-out: Percent Control
[19] = molecular target: IKK-beta (Homo sapiens (Human), UniProt O14920); settings: 10000 nM, read-out: Percent Control
[20] = molecular target: PFTAIRE2 (Homo sapiens (Human), UniProt Q96Q40); settings: PFTAIRE2, 10000 nM; read-out: Percent Control
[21] = molecular target: NEK9 (Homo sapiens (Human), UniProt Q8TD19); settings: NEK9, 10000 nM; read-out: Percent Control
[22] = molecular target: PAK1 (Homo sapiens (Human), UniProt Q13153); settings: PAK1, 10000 nM; read-out: Percent Control
[23] = molecular target: PIM2 (Homo sapiens (Human), UniProt Q9P1W9); settings: PIM2, 10000 nM; read-out: Percent Control
PIM2, sequence (Q9P1W9 whole entry): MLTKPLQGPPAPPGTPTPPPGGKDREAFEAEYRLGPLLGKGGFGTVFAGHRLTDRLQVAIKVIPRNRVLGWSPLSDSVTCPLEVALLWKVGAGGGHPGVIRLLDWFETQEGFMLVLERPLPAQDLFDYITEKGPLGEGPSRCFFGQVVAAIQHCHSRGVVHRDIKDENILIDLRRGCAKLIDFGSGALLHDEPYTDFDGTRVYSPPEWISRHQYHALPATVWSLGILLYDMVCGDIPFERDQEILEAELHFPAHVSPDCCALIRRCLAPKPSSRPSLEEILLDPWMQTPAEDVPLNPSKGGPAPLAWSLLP

[24] = molecular target: ASK1 (Homo sapiens (Human), UniProt Q99683); settings: ASK1, 10000 nM; read-out: Percent Control
[25] = molecular target: MRCKB (Homo sapiens (Human), UniProt Q9Y5S2); settings: 10000 nM, read-out: Percent Control
[26] = molecular target: DAPK3 (Homo sapiens (Human), UniProt O43293); settings: DAPK3, 10000 nM; read-out: Percent Control
[27] = molecular target: ANKK1 (Homo sapiens (Human), UniProt Q8NFD2); settings: ANKK1, 10000 nM; read-out: Percent Control
[28] = molecular target: CASK (Homo sapiens (Human), UniProt O14936); settings: 10000 nM, read-out: Percent Control
CASK, sequence (O14936 whole entry): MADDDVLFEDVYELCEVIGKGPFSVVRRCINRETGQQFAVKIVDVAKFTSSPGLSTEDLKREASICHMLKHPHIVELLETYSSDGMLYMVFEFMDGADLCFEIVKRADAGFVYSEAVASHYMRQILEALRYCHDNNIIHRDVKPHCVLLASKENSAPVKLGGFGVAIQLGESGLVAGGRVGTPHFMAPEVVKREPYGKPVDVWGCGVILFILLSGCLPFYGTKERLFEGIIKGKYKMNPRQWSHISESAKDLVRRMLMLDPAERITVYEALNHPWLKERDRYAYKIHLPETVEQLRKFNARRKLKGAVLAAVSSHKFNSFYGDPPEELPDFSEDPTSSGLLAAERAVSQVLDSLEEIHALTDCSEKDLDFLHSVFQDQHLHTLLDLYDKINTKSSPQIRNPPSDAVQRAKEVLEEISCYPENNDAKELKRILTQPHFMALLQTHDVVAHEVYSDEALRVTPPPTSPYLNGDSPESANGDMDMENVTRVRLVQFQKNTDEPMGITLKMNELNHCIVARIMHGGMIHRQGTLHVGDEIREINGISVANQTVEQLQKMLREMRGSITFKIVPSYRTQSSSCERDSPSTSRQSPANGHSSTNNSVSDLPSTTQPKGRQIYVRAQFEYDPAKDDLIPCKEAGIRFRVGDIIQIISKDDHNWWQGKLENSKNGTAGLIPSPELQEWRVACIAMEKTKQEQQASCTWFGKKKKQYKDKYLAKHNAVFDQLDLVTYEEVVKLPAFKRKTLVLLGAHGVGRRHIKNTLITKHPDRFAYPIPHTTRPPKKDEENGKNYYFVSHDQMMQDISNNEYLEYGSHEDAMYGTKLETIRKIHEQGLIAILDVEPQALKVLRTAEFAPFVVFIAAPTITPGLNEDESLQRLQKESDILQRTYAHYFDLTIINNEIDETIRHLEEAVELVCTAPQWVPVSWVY

[29] = molecular target: EGFR(L858R, T790M) (Homo sapiens (Human), UniProt P00533, L858R/T790M); settings: 10000 nM, read-out: Percent Control
[30] = molecular target: TGFBR2 (Homo sapiens (Human), UniProt P37173); settings: TGFBR2, 10000 nM; read-out: Percent Control
[31] = molecular target: EPHB4 (Homo sapiens (Human), UniProt P54760); settings: EPHB4, 10000 nM; read-out: Percent Control
[32] = molecular target: PIP5K2C (Homo sapiens (Human), UniProt Q8TBX8); settings: 10000 nM, read-out: Percent Control
[33] = molecular target: ABL1(T315I)-phosphorylated (Homo sapiens (Human), UniProt P00519, T315I); settings: 10000 nM, read-out: Percent Control
[34] = molecular target: LYN (Homo sapiens (Human), UniProt P07948); settings: 10000 nM, read-out: Percent Control

| SMILES | remaining binding at 10 µM [1] | remaining binding at 10 µM [2] | remaining binding at 10 µM [3] | remaining binding at 10 µM [4] | remaining binding at 10 µM [5] | remaining binding at 10 µM [6] | remaining binding at 10 µM [7] | remaining binding at 10 µM [8] | remaining binding at 10 µM [9] | remaining binding at 10 µM [10] | remaining binding at 10 µM [11] | remaining binding at 10 µM [12] | remaining binding at 10 µM [13] | remaining binding at 10 µM [14] | remaining binding at 10 µM [15] | remaining binding at 10 µM [16] | remaining binding at 10 µM [17] | remaining binding at 10 µM [18] | remaining binding at 10 µM [19] | remaining binding at 10 µM [20] | further results |
| --- | --- | --- | --- | --- | --- | --- | --- | --- | --- | --- | --- | --- | --- | --- | --- | --- | --- | --- | --- | --- | --- |
| COc1cc(N2CCC(N3CCN(C)CC3)CC2)ccc1Nc1ncc2c(n1)N(C)c1sc(C)nc1C(=O)N2 [Compound 3, 6-((2-methoxy-4-(4-(4-methylpiperazin-1-yl)piperidin-1-yl)phenyl)amino)-2,4-dimethyl-4,9-dihydro-10H-pyrimido[5,4-b]thiazolo[5,4-e][1,4]diazepin-10-one] | 98% | 55% | 82% | 92% | 100% | 69% | 87% | 69% | 90% | 83% | 90% | 90% | 94% | 98% | 95% | 54% | 91% | 84% | 100% | 86% | remaining binding at 10 µM [21]: 84%; remaining binding at 10 µM [22]: 64%; remaining binding at 10 µM [23]: 92%; remaining binding at 10 µM [24]: 74%; remaining binding at 10 µM [25]: 100%; remaining binding at 10 µM [26]: 62%; remaining binding at 10 µM [27]: 80%; remaining binding at 10 µM [28]: 83%; remaining binding at 10 µM [29]: 100%; remaining binding at 10 µM [30]: 96%; remaining binding at 10 µM [31]: 61%; remaining binding at 10 µM [32]: 86%; remaining binding at 10 µM [33]: 93%; remaining binding at 10 µM [34]: 69% |
| COc1cc(N2CCC(N3CCN(C)CC3)CC2)ccc1Nc1ncc2c(n1)N(C)c1sc(C)nc1C(=O)N2C [Compound 5, 6-((2-methoxy-4-(4-(4-methylpiperazin-1-yl)piperidin-1-yl)phenyl)amino)-2,4,9-trimethyl-4,9-dihydro-10H-pyrimido[5,4-b]thiazolo[5,4-e][1,4]diazepin-10-one] | 96% | 95% | 100% | 88% | 99% | 100% | 3% | 100% | 86% | 73% | 84% | 100% | 41% | 84% | 100% | 100% | 98% | 100% | 96% | 100% | remaining binding at 10 µM [21]: 100%; remaining binding at 10 µM [22]: 92%; remaining binding at 10 µM [23]: 100%; remaining binding at 10 µM [24]: 88%; remaining binding at 10 µM [25]: 100%; remaining binding at 10 µM [26]: 97%; remaining binding at 10 µM [27]: 92%; remaining binding at 10 µM [28]: 100%; remaining binding at 10 µM [29]: 80%; remaining binding at 10 µM [30]: 98%; remaining binding at 10 µM [31]: 100%; remaining binding at 10 µM [32]: 75%; remaining binding at 10 µM [33]: 98%; remaining binding at 10 µM [34]: 100% |

Reference: US12365696B2, “Small-molecule focal adhesion kinase (FAK) inhibitors” (DANA-FARBER CANCER INSTITUTE, INC., priority 2019, dated 2025)
